Holding throughout (type): cell-based
The target of one test is T1, ADBR2 (Homo sapiens, UniProt P07550).
T1 construct: host or cells: HEK293 or CHO cell lines (ATCC)
Kind of test: CRE-Luc reporter assay with control receptor ADBR2.

The subject of the next test is human PBMCs. The experiment in a line: Cytokines in supernatants of anti-CD3/anti-CD28 stimulated human PBMC (Examples 6, 8, 9). The settings on record: for IL-2 in culture supernatants (fold over vehicle): day 2 post-stimulation, compound 10 at 1, 3, 10 μM. The method, then: The effect of compound 10 on IL-2 and IFN-γ production in human PBMCs was determined as follows. PBMCs from a single donor were adjusted to a density of 2×10^6 cells/mL, stimulated with 100 ng/mL of anti-CD3 and 100 ng/mL of anti-CD28 antibodies and treated with 1 μM, 3 μM, or 10 μM of compound 10. Supernatant from these cells was taken on day 2 post-stimulation and the levels of IL-2 and IFN-γ were determined by ELISA assay using Ready-SET-Go ELISA kits from Affimetrix Ebioscience according to the manufacturer's instructions.
The effect of compound 10 on IL-2 production in human PBMCs was determined as follows. […] Supernatant from these cells was taken on day 3 post-stimulation and the levels of IL-2 were determined by ELISA assay using Ready-SET-Go™ ELISA kits from Affimetrix Ebioscience and LEGENDplex™ bead-based immunoassays from BioLegend according to the manufacturer's instructions.
The effect of compound 10 on IL-2 production in human PBMC from each donor was determined as follows. PBMC from each donor were adjusted to a density of 2×10^6 cells/mL, stimulated with 100 ng/mL of anti-CD3 and 100 ng/mL of anti-CD28 antibodies and treated with 30 μM compound 10. Supernatant from these cells was taken on day 2 post-stimulation and the levels of IL-2 were determined by ELISA assay using LEGENDplex™ bead-based immunoassays from BioLegend (San Diego, Calif.) according to the manufacturer's instructions.
The effect of compound 10 on the production of a panel of additional cytokines (interleukin 5 (IL-5), interleukin 13 (IL-13), interleukin 6 (IL-6), interleukin 9 (IL-9), interleukin 10 (IL-10), interferon gamma (IFN-γ), tumor necrosis factor alpha (TNF-α), interleukin 17A (IL-17A), interleukin 17F (IL-17F), interleukin 4 (IL-4) and interleukin 22 (IL-22)) in pooled human PBMC obtained from eight donors was determined as follows. PBMC from eight donors were pooled, then adjusted to a density of 2×10^6 cells/mL, stimulated with 100 ng/mL of anti-CD3 and 100 ng/mL of anti-CD28 antibodies and treated with 30 μM compound 10. Supernatant from these cells was taken on day 2 post-stimulation and the levels of IL-5, IL-13, IL-6, IL-9, IL-10, IFN-γ, TNF-α, IL-17A, IL-17F, IL-4 and […] were determined by ELISA using LEGENDplex™ bead-based immunoassays from BioLegend (San Diego, Calif.) according to the manufacturer's instructions.

The next test relates to mouse splenocytes. The experiment in a line: IL-2 levels in supernatants of cultured mouse splenocytes (WT or GPR174-KO) stimulated with anti-CD3 and anti-CD28, MSD platform. The following applies: 2 days. The method, then:
To make single cell suspensions from mouse splenocytes, spleens were cut into 1-2 mm^3 pieces with a razor blade and incubated at 37° C. with 10 μg/mL DNase and 1 mg/mL Collagenase D with agitation for 90 min. Spleen fragments and cells were then pressed through a nylon screen, and the resulting cell suspension was washed. In 96-well flat-bottom plates, splenocytes were cultured in quadruplicate with the following conditions for 2 days, after which supernatants were tested for cytokine levels with the MSD platform.
Anti-CD3 (clone 2C11; 0.1 μg/mL)
GPR174 inhibitor (compound 10, 1 μM or 0.3 μM, or DMSO vehicle control)
GPR174 inhibitor (compound 6, 0.3 μM, or DMSO vehicle control)
Adenosine receptor agonist (NECA, 0.1 μM)

Setting [1] is: Example 9, day 2, PBMC of eight donors, 30 μM.

T1 sequence (P07550 whole entry): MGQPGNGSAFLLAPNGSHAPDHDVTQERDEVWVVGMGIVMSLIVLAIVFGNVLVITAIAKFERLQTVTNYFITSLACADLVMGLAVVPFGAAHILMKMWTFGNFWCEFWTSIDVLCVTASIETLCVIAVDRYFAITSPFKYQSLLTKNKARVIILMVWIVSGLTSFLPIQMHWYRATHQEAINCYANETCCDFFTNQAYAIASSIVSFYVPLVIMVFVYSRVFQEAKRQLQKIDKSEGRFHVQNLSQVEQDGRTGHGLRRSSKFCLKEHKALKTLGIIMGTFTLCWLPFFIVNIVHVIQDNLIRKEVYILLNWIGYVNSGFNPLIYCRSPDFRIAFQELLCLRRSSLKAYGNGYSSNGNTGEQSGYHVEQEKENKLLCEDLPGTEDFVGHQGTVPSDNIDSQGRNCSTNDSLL

As to `O=C(c1ccccc1)N1CCN(c2cc(N3CCCCC3)c(F)cc2[N+](=O)[O-])CC1` [compound 6], at ADBR2, the “Gs pathway in the presence of ADBR2 (CRE-Luc reporter)” value is reported as “did not inhibit”. Further, the “IL-2 in culture supernatants (fold over vehicle)” value in the test on human PBMCs (Example 6) is recorded as “increased IL-2 levels”. Besides, the “increase of IL-2 levels” value with mouse splenocytes (GPR174-KO splenocytes, NECA 0.1 μM, compounds 10, 6 0.3 μM, ZM-241385 0.2 μM, FIG. 70B) is “modest off-target activity”.

For `CC1CCN(c2cc(N3CCN(S(=O)(=O)c4ccccc4)CC3)c([N+](=O)[O-])cc2F)CC1` [compound 10], the “Gs pathway in the presence of ADBR2 (CRE-Luc reporter)” value on ADBR2 is “did not inhibit”. Besides, the “IFN-γ in culture supernatants, fold over vehicle” value in the test with human PBMCs (Example 6, day 2, 1, 3, 10 μM) is listed as “increased interferon gamma (IFN-γ) in a dose-dependent manner”. For the same compound, the “IL-2 in culture supernatants (fold over vehicle)” value in the test with human PBMCs (Example 6) is reported as “increased IL-2 levels in a dose-dependent manner”. Also, the “IL-2 in culture supernatants” value with human PBMCs (Example 8, day 3, single donor, 3, 10, 30, 60 μM) was “increased IL-2 levels in culture supernatants in a dose-dependent manner”. Besides, in the test on human PBMCs (setting [1]), the “IFN-γ in culture supernatants, fold over vehicle” value is “statistically significant fold increase”; the “IL-6 in culture supernatants, fold over vehicle” value was “statistically significant fold increase”; the “IL-10 in culture supernatants, fold over vehicle” value is given as “statistically significant fold increase”; the “IL-17A in culture supernatants, fold over vehicle” value is “statistically significant fold decrease”. In addition, the “TNF-α in culture supernatants, fold over vehicle” value in the test on human PBMCs (setting [1]) is “statistically significant fold increase”. The “IL-2 in culture supernatants, fold over vehicle, average” value in the test with human PBMCs (Example 9, day 2, eight donors, 30 μM) is “about 5 fold”. In addition, in the test with mouse splenocytes (WT splenocytes, no NECA, compound 10 1 μM, ZM-241385 0.1 μM, FIG. 68A), the “increase of IL-2 levels” value is given as “greater than 4 fold”.

Values taken from patent US20200345725A1, “Methods and Compositions for Treating Cancer” (Omeros Corporation, priority 2019, published 2020).
